Measured values taken from patent US20070259857A1, “Amorphous form of Olanzapine” (priority 2003, published 2007).

Assay: Storage stability of ground amorphous olanzapine at room temperature, by XRPD analysis
Type: physicochemical
Conditions: ground sample of Example One stored at room temperature for 13 weeks
Protocol: Figure Two is an XRPD spectrum of amorphous olanzapine. X-ray powder diffraction (XRPD) was performed on a Bruker D8 advance difractometer, at 25° C. between the angles of 4° and 50° 2 theta.
The sample of ground olanzapine was stored at room temperature for 13 weeks for stability testing using XRPD analysis.

Cc1cc2c(s1)Nc1ccccc1N=C2N1CCN(C)CC1 [olanzapine, 2-methyl-4-(4-methyl-1-piperazinyl)-10H-thieno[2,3-b][1,5]benzodiazepine]
Stability testing using XRPD analysis: difference in XRPD spectrum between the original and the stored sample: No difference was observed
